Measured values reported in patent publication US12252524B2, “GIP/GLP1 co-agonist compounds” (Eli Lilly and Company, priority 2018, dated 2025).
Where two headings read alike, the source gives them in different places. Numbered stars: 1 amine (or outer) side, 2 acyl side, 3 side chain; on linkers, the order of the positions; unused ones are H or OH. Square brackets hold non-standard residues; d marks the D form. Side chains are listed from the residue outwards. Peptide text beside a SMILES is read from it. * marks the point of attachment. C20 diacid = O=C(O)CCCCCCCCCCCCCCCCCCC(=O)*; C18 diacid = O=C(O)CCCCCCCCCCCCCCCCC(=O)*; γGlu = O=C(O)[C@H](CCC(=O)[*:2])N[*:1]; αMeY = C[C@](N)(Cc1ccc(O)cc1)C(=O)O; αMeF = C[C@](N)(Cc1ccccc1)C(=O)O; αMeL = CC(C)C[C@](C)(N)C(=O)O; Dab = NCC[C@H](N)C(=O)O; AEEA = NCCOCCOCC(=O)O; Aib = CC(C)(N)C(=O)O

Columns and labels:
[1] = biological target: T1, human GLP-1R (Homo sapiens, UniProt P43220); assay: GLP-1R CHO cell β-arrestin recruitment assay; assay type: cell-based; parameters: host or cells: CHO-K1 PathHunter cells, assay-ready frozen; conditions: for hGLP1R B-Arrestin2 % Top: normalized to GLP-1 maximum control
T1 sequence (P43220 24-463): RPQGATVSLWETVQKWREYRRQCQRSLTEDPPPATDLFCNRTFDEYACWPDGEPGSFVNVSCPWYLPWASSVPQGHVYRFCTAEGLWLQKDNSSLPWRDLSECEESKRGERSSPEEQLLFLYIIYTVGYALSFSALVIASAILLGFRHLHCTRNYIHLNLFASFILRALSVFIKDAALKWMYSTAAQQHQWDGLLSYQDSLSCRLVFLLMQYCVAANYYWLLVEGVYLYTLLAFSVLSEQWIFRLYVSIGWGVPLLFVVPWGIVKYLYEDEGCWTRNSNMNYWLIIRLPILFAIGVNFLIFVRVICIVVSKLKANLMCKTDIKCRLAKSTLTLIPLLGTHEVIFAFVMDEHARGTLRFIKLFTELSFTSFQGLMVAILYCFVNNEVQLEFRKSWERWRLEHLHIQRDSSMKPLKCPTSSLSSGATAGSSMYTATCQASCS
Method in brief: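 Peptide-induced β-arrestin-2 recruitment measured by enzyme-fragment complementation luminescence after 90 min at 37 °C plus 60 min detection at RT.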

[2] = biological target: human GLP-1 receptor (GLP-1R) (Homo sapiens, UniProt P43220); assay: cAMP pharmacological functional assay in presence of casein, hGLP-1R; assay type: cell-based
Sequence of human GLP-1 receptor (GLP-1R) (P43220 24-463): as above

[3] = biological target: T1, human GLP-1R; assay: GLP-1R HEK293 cell membrane [35S]GTPγS binding assay; assay type: biochemical; parameters: expressed in transfected cells; host or cells: HEK293 cells expressing human GLP-1R; membranes
Method in brief: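 Agonist-driven Gαs activation read as [35S]GTPγS ([…]) binding to receptor-expressing HEK293 membranes, 30 min at room temperature, pH 7.4. Detection by anti-Gαs immunocapture on scintillation beads; EC50 derived from four-parameter logistic concentration-response fit.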

[4] = biological target: T2, gastric inhibitory peptide receptor (GIPR) (Homo sapiens, UniProt P48546); assay: cAMP pharmacological functional assay in presence of casein, hGIPR; assay type: cell-based
T2 sequence (P48546 22-466): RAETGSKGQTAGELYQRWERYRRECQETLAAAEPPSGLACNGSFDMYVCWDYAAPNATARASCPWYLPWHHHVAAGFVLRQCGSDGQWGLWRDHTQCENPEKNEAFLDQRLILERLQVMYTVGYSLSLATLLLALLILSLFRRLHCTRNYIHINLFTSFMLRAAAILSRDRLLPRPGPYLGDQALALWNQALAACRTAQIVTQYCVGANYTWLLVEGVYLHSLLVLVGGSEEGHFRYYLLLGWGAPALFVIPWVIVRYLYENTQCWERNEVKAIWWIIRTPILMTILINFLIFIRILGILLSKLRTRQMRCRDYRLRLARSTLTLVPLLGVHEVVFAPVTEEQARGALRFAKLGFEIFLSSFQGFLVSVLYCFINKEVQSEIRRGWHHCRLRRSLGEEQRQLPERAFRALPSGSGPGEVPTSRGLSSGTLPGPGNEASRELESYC

[5] = CHO-K1 cells, PathHunter β-arrestin-2 recruitment, 0.1% casein, read-out: hGLP1R B-Arrestin2 Rel EC50 uM (SEM, n)
[6] = HEK293 cells expressing hGLP-1R, 0.1% Casein, geometric mean, read-out: hGLP1R cAMP Rel EC50 nM (SEM, n)
[7] = HEK293 cell membranes expressing human GLP-1R, [35S]GTPγS binding, read-out: hGLP1R GTPgS Rel EC50 nM (SEM, n)
[8] = HEK293 cells expressing hGIPR, 0.1% Casein, geometric mean, read-out: hGIPR cAMP Rel EC50 nM (SEM, n)

Compound: CC[C@H](C)[C@H](NC(=O)[C@H](CC(C)C)NC(=O)[C@H](Cc1ccc(O)cc1)NC(=O)[C@H](CCC(=O)O)NC(=O)[C@@H](NC(=O)[C@H](Cc1ccccc1)NC(=O)[C@H](C)NC(=O)C(C)(C)NC(=O)[C@H](CCC(N)=O)NC(=O)[C@H](C)NC(=O)[C@H](CCCCNC(=O)COCCOCCNC(=O)COCCOCCNC(=O)CC[C@H](NC(=O)CCCCCCCCCCCCCCCCCCC(=O)O)C(=O)O)NC(=O)[C@H](CCN)NC(=O)[C@H](CC(=O)O)NC(=O)[C@H](CC(C)C)NC(=O)[C@](C)(CC(C)C)NC(=O)[C@@H](NC(=O)[C@H](CO)NC(=O)[C@H](Cc1ccc(O)cc1)NC(=O)[C@H](CC(=O)O)NC(=O)[C@H](CO)NC(=O)[C@@H](NC(=O)[C@H](Cc1ccccc1)NC(=O)[C@@H](NC(=O)CNC(=O)[C@H](CCC(=O)O)NC(=O)C(C)(C)NC(=O)[C@H](N)Cc1ccc(O)cc1)[C@@H](C)O)[C@@H](C)O)[C@@H](C)CC)[C@@H](C)CC)C(=O)N[C@@H](C)C(=O)NCC(=O)NCC(=O)N1CCC[C@H]1C(=O)N[C@@H](CO)C(=O)N[C@@H](CO)C(=O)NCC(=O)N[C@@H](C)C(=O)N1CCC[C@H]1C(=O)N1CCC[C@H]1C(=O)N1CCC[C@H]1C(=O)N[C@@H](CO)C(N)=O [Example 347] (H-[dY][Aib]EGTFTSDYSI[αMeL]LD[Dab]K([AEEA-AEEA-γGlu-C20 diacid])AQ[Aib]AFIEYLIAGGPSSGAPPPS-NH2)
- EC50 [1, 5]: 0.00542 µM
- hGLP1R B-Arrestin2 % Top [1]: 24.6%
- EC50 [2, 6]: 0.102 nM
- EC50 [3, 7]: 0.759 nM
- EC50 [4, 8]: 0.0827 nM

Compound: CC[C@H](C)[C@H](NC(=O)[C@H](CC(C)C)NC(=O)[C@H](Cc1ccc(O)cc1)NC(=O)[C@H](CCC(=O)O)NC(=O)[C@@H](NC(=O)[C@H](Cc1ccccc1)NC(=O)[C@H](CCC(=O)O)NC(=O)C(C)(C)NC(=O)[C@H](CCC(N)=O)NC(=O)[C@H](C)NC(=O)[C@H](CCCCNC(=O)COCCOCCNC(=O)COCCOCCNC(=O)CC[C@H](NC(=O)CCCCCCCCCCCCCCCCCCC(=O)O)C(=O)O)NC(=O)[C@H](CCCCN)NC(=O)[C@H](CC(=O)O)NC(=O)[C@H](CC(C)C)NC(=O)[C@](C)(CC(C)C)NC(=O)[C@@H](NC(=O)[C@H](CO)NC(=O)[C@H](Cc1ccc(O)cc1)NC(=O)[C@H](CC(=O)O)NC(=O)[C@H](CO)NC(=O)[C@@H](NC(=O)[C@](C)(Cc1ccccc1)NC(=O)[C@@H](NC(=O)CNC(=O)[C@H](CCC(=O)O)NC(=O)C(C)(C)NC(=O)[C@H](N)Cc1ccc(O)cc1)[C@@H](C)O)[C@@H](C)O)[C@@H](C)CC)[C@@H](C)CC)C(=O)N[C@@H](C)C(=O)NCC(=O)NCC(=O)N1CCC[C@H]1C(=O)N[C@@H](CO)C(=O)N[C@@H](CO)C(=O)NCC(=O)N[C@@H](C)C(=O)N1CCC[C@H]1C(=O)N1CCC[C@H]1C(=O)N1CCC[C@H]1C(=O)N[C@@H](CO)C(N)=O [Example 345] (H-[dY][Aib]EGT[αMeF]TSDYSI[αMeL]LDKK([AEEA-AEEA-γGlu-C20 diacid])AQ[Aib]EFIEYLIAGGPSSGAPPPS-NH2)
- EC50 [1]: 0.00308 µM
- hGLP1R B-Arrestin2 % Top [1]: 74.7%
- EC50 [2]: 0.035 nM
- EC50 [3]: 0.684 nM
- EC50 [4]: 0.0649 nM

Compound: CC[C@H](C)[C@H](NC(=O)[C@H](CC(C)C)NC(=O)[C@H](Cc1ccc(O)cc1)NC(=O)[C@@H](CCC(=O)O)NC(=O)[C@@H](NC(=O)[C@H](Cc1ccccc1)NC(=O)[C@H](CCC(=O)O)NC(=O)C(C)(C)NC(=O)[C@H](CCC(N)=O)NC(=O)[C@H](C)NC(=O)[C@H](CCCCNC(=O)COCCOCCNC(=O)COCCOCCNC(=O)CC[C@H](NC(=O)CCCCCCCCCCCCCCCCCCC(=O)O)C(=O)O)NC(=O)[C@H](CCCCN)NC(=O)[C@H](CC(=O)O)NC(=O)[C@H](CC(C)C)NC(=O)[C@](C)(CC(C)C)NC(=O)[C@@H](NC(=O)[C@H](CO)NC(=O)[C@H](Cc1ccc(O)cc1)NC(=O)[C@H](CC(=O)O)NC(=O)[C@H](CO)NC(=O)[C@@H](NC(=O)[C@H](Cc1ccccc1)NC(=O)[C@@H](NC(=O)CNC(=O)[C@H](CCC(=O)O)NC(=O)C(C)(C)NC(=O)[C@H](N)Cc1ccc(O)cc1)[C@@H](C)O)[C@@H](C)O)[C@@H](C)CC)[C@@H](C)CC)C(=O)N[C@@H](CCC(=O)O)C(=O)NCC(=O)NCC(=O)N1CCC[C@H]1C(=O)N[C@@H](CO)C(=O)N[C@@H](CO)C(=O)NCC(=O)N[C@@H](C)C(=O)N1CCC[C@H]1C(=O)N1CCC[C@H]1C(=O)N1CCC[C@H]1C(=O)N[C@@H](CO)C(N)=O [Example 353] (H-[dY][Aib]EGTFTSDYSI[αMeL]LDKK([AEEA-AEEA-γGlu-C20 diacid])AQ[Aib]EFI[dE]YLIEGGPSSGAPPPS-NH2)
- EC50 [1, 5]: 0.559 µM
- hGLP1R B-Arrestin2 % Top [1]: 23.0%
- EC50 [2, 6]: 1.09 nM
- EC50 [3, 7]: 1.96 nM
- EC50 [4, 8]: 0.497 nM

Compound: CC[C@H](C)[C@H](NC(=O)[C@H](CC(C)C)NC(=O)[C@](C)(Cc1ccc(O)cc1)NC(=O)[C@H](CCC(=O)O)NC(=O)[C@@H](NC(=O)[C@H](Cc1ccccc1)NC(=O)[C@H](C)NC(=O)C(C)(C)NC(=O)[C@H](CCC(N)=O)NC(=O)[C@H](C)NC(=O)[C@H](CCCCNC(=O)COCCOCCNC(=O)COCCOCCNC(=O)CC[C@H](NC(=O)CCCCCCCCCCCCCCCCC(=O)O)C(=O)O)NC(=O)[C@H](CCCCN)NC(=O)[C@H](CC(=O)O)NC(=O)[C@H](CC(C)C)NC(=O)[C@](C)(CC(C)C)NC(=O)[C@@H](NC(=O)[C@H](CO)NC(=O)[C@H](Cc1ccc(O)cc1)NC(=O)[C@H](CC(=O)O)NC(=O)[C@H](CO)NC(=O)[C@@H](NC(=O)[C@H](Cc1ccccc1)NC(=O)[C@@H](NC(=O)CNC(=O)[C@H](CCC(=O)O)NC(=O)C(C)(C)NC(=O)[C@H](N)Cc1ccc(O)cc1)[C@@H](C)O)[C@@H](C)O)[C@@H](C)CC)[C@@H](C)CC)C(=O)N[C@@H](C)C(=O)NCC(=O)NCC(=O)N1CCC[C@H]1C(=O)N[C@@H](CO)C(=O)N[C@@H](CO)C(=O)NCC(=O)N[C@@H](C)C(=O)N1CCC[C@H]1C(=O)N1CCC[C@H]1C(=O)N1CCC[C@H]1C(=O)N[C@@H](CO)C(N)=O [Example 376] (H-[dY][Aib]EGTFTSDYSI[αMeL]LDKK([AEEA-AEEA-γGlu-C18 diacid])AQ[Aib]AFIE[αMeY]LIAGGPSSGAPPPS-NH2)
- EC50 [1, 5]: 0.0123 µM
- hGLP1R B-Arrestin2 % Top [1]: 25.6%
- EC50 [2, 6]: 0.17 nM
- EC50 [3, 7]: 0.326 nM
- EC50 [4, 8]: 0.0723 nM

Compound: CC[C@H](C)[C@H](NC(=O)[C@H](CC(C)C)NC(=O)[C@H](Cc1ccc(O)cc1)NC(=O)[C@H](CCC(=O)O)NC(=O)[C@@H](NC(=O)[C@H](Cc1ccccc1)NC(=O)[C@H](CCC(=O)O)NC(=O)C(C)(C)NC(=O)[C@H](CCC(N)=O)NC(=O)[C@H](C)NC(=O)[C@H](CCCCNC(=O)COCCOCCNC(=O)COCCOCCNC(=O)CC[C@H](NC(=O)CCCCCCCCCCCCCCCCCCC(=O)O)C(=O)O)NC(=O)[C@H](CCN)NC(=O)[C@H](CC(=O)O)NC(=O)[C@H](CC(C)C)NC(=O)[C@](C)(CC(C)C)NC(=O)[C@@H](NC(=O)[C@H](CO)NC(=O)[C@H](Cc1ccc(O)cc1)NC(=O)[C@H](CC(=O)O)NC(=O)[C@H](CO)NC(=O)[C@@H](NC(=O)[C@H](Cc1ccccc1)NC(=O)[C@@H](NC(=O)CNC(=O)[C@H](CCC(=O)O)NC(=O)C(C)(C)NC(=O)[C@H](N)Cc1ccc(O)cc1)[C@@H](C)O)[C@@H](C)O)[C@@H](C)CC)[C@@H](C)CC)C(=O)N[C@@H](C)C(=O)NCC(=O)NCC(=O)N1CCC[C@H]1C(=O)N[C@@H](CO)C(=O)N[C@@H](CO)C(=O)NCC(=O)N[C@@H](C)C(=O)N1CCC[C@H]1C(=O)N1CCC[C@H]1C(=O)N1CCC[C@H]1C(=O)N[C@@H](CO)C(N)=O [Example 350] (H-[dY][Aib]EGTFTSDYSI[αMeL]LD[Dab]K([AEEA-AEEA-γGlu-C20 diacid])AQ[Aib]EFIEYLIAGGPSSGAPPPS-NH2)
- EC50 [1, 5]: 0.0108 µM
- hGLP1R B-Arrestin2 % Top [1]: 21.8%
- EC50 [2, 6]: 0.107 nM
- EC50 [3, 7]: 0.589 nM
- EC50 [4, 8]: 0.189 nM
